Source: patent US20040132779A1, “Microsomal Triglyceride transfer protein inhibitor” (Pfizer Inc, priority 2002, published 2004)

Experiment: Reduction of food intake assay
Assay type: in vivo
Conditions: beagles, oral gavage, 0.1, 0.25 or 0.5 mg/kg, Days 0 to 6
Experimental: Reduction of Food Intake Assay
Healthy, young adult (1-3 years of age) male and female beagles (Marshall Farms, North Rose, New York, N.Y. 14516) weighing 13-18 kg at the start of the treatment period are employed as test subjects.
The test compound is provided as a powder. The dosing solution, administered by oral gavage, is provided employing a 70/30 polyethylene glycol 400/water solution as the test vehicle. The dosing solution is prepared at 0.1 to 0.5 mg/ml activity so that 1 ml is delivered per kg body weight at dosages of 0.1 to 0.5 mg/kg. Following a seven day acclimation period, a ten day evaluation study is effected.
The study consists of three groups of animals containing 2 male and 2 female dogs, each. Each group of four animals is randomly assigned to receive 0.1, 0.25 or 0.5 mg/kg test compound. On Days 0 to 6, each dog receives the dosing solution administered as a single dose at Time 0 on each dosing day via a feeding tube. This is followed by a 10 ml water rinse to ensure total delivery of dosing solution. Each test animal is permitted ad libitum access to water and IAMS Mini-Chunks® (The Iams Company, P.O. Box 14597, Dayton, Ohio) dry food each day during the study and approximately 0.5-1 hours post-dose.

## Cc1cc(CNC(=O)[C@@H](NC(=O)C(F)(F)F)c2ccccc2)ccc1NC(=O)c1ccccc1-c1ccc(C(F)(F)F)cc1 [Example 1A-1, (S) 4′-Trifluoromethyl-biphenyl-2-carboxylic Acid (2-methyl-4-{[2-phenyl-2-(2,2,2-trifluoro-acetylamino)-acetylamino]-methyl}-phenyl)-amide]
  body weight: reduction in body weight
  fecal fat: increased fecal fat
  food intake: reduction in food intake
  serum cholesterol: reduction in serum cholesterol
